System: 616215-338-R-J1-PDC spheroids with HUVEC/MSC, viability
Assay: Anticancer human tumor 616215-338-R-J1-PDC patient-derived colon adenocarcinoma cell line growth inhibition [PI3K]
Conditions: for viability, T/C: stronger effect = lower value
How it was run: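 Agents were dosed from a top concentration near clinical Cmax (otherwise 10 microM) in half-log decrements, alone or combined with PI3K inhibitors. The spheroids contain tumor cells plus endothelial (HUVEC) and MSC stroma; viability is measured.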

[1] = curve of first compound, second compound 0.00316 µM
[2] = curve of first compound, second compound 0.01 µM
[3] = curve of first compound, second compound 0.0316 µM
[4] = curve of first compound, second compound 0.1 µM
[5] = curve of first compound, second compound 0.316 µM
[6] = curve of first compound, second compound 1 µM
[7] = second compound 0.00316 µM, first compound 0.0316 µM
[8] = second compound 0.00316 µM, first compound 0.1 µM
[9] = second compound 0.00316 µM, first compound 0.316 µM
[10] = second compound 0.00316 µM, first compound 1 µM
[11] = second compound 0.00316 µM, first compound 3.16 µM
[12] = second compound 0.00316 µM, first compound 10 µM
[13] = second compound 0.01 µM, first compound 0.0316 µM
[14] = second compound 0.01 µM, first compound 0.1 µM
[15] = second compound 0.01 µM, first compound 0.316 µM
[16] = second compound 0.01 µM, first compound 1 µM
[17] = second compound 0.01 µM, first compound 3.16 µM
[18] = second compound 0.01 µM, first compound 10 µM
[19] = second compound 0.0316 µM, first compound 0.0316 µM
[20] = second compound 0.0316 µM, first compound 0.1 µM
[21] = second compound 0.0316 µM, first compound 0.316 µM
[22] = second compound 0.0316 µM, first compound 1 µM
[23] = second compound 0.0316 µM, first compound 3.16 µM
[24] = second compound 0.0316 µM, first compound 10 µM
[25] = second compound 0.1 µM, first compound 0.0316 µM
[26] = second compound 0.1 µM, first compound 0.1 µM
[27] = second compound 0.1 µM, first compound 0.316 µM
[28] = second compound 0.1 µM, first compound 1 µM
[29] = second compound 0.1 µM, first compound 3.16 µM
[30] = second compound 0.1 µM, first compound 10 µM
[31] = second compound 0.316 µM, first compound 0.0316 µM
[32] = second compound 0.316 µM, first compound 0.1 µM
[33] = second compound 0.316 µM, first compound 0.316 µM
[34] = second compound 0.316 µM, first compound 1 µM
[35] = second compound 0.316 µM, first compound 3.16 µM
[36] = second compound 0.316 µM, first compound 10 µM
[37] = second compound 1 µM, first compound 0.0316 µM
[38] = second compound 1 µM, first compound 0.1 µM
[39] = second compound 1 µM, first compound 0.316 µM
[40] = second compound 1 µM, first compound 1 µM
[41] = second compound 1 µM, first compound 3.16 µM
[42] = second compound 1 µM, first compound 10 µM
[43] = curve of first compound, second compound 3.16 µM
[44] = curve of first compound, second compound 10 µM
[45] = second compound 3.16 µM, first compound 0.0316 µM
[46] = second compound 3.16 µM, first compound 0.1 µM
[47] = second compound 3.16 µM, first compound 0.316 µM
[48] = second compound 3.16 µM, first compound 1 µM
[49] = second compound 3.16 µM, first compound 3.16 µM
[50] = second compound 3.16 µM, first compound 10 µM
[51] = second compound 10 µM, first compound 0.0316 µM
[52] = second compound 10 µM, first compound 0.1 µM
[53] = second compound 10 µM, first compound 0.316 µM
[54] = second compound 10 µM, first compound 1 µM
[55] = second compound 10 µM, first compound 3.16 µM
[56] = second compound 10 µM, first compound 10 µM
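Note: spheroids exposed to agents for seven days before the viability read.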

CC(C)NCC(C(=O)N1CCN(c2ncnc3c2C(C)CC3O)CC1)c1ccc(Cl)cc1 (centres undefined) + CC(Nc1ccc2c(c1)OCCn1cc(N3C(=O)OCC3C(F)F)nc1-2)C(N)=O
IC50 [1]: 6.44 µM | IC50 [2]: 5.88 µM | IC50 [3]: 5.98 µM | IC50 [4]: 4.99 µM | IC50 [5]: 5.13 µM | IC50 [6]: 3.76 µM | viability, T/C [7]: 86.5% | viability, T/C [8]: 95.8% | viability, T/C [9]: 95.8% | viability, T/C [10]: 98.2% | viability, T/C [11]: 69.9% | viability, T/C [12]: 37.7% | viability, T/C [13]: 88.5% | viability, T/C [14]: 102% | viability, T/C [15]: 90.4% | viability, T/C [16]: 110% | viability, T/C [17]: 70% | viability, T/C [18]: 32.9% | viability, T/C [19]: 97.7% | viability, T/C [20]: 104% | viability, T/C [21]: 98% | viability, T/C [22]: 98.1% | viability, T/C [23]: 65.8% | viability, T/C [24]: 37.2% | viability, T/C [25]: 95% | viability, T/C [26]: 94.6% | viability, T/C [27]: 95% | viability, T/C [28]: 93.6% | viability, T/C [29]: 65.7% | viability, T/C [30]: 26.1% | viability, T/C [31]: 110% | viability, T/C [32]: 99.9% | viability, T/C [33]: 95.5% | viability, T/C [34]: 103% | viability, T/C [35]: 65.9% | viability, T/C [36]: 28% | viability, T/C [37]: 106% | viability, T/C [38]: 95.5% | viability, T/C [39]: 105% | viability, T/C [40]: 88.9% | viability, T/C [41]: 54% | viability, T/C [42]: 29.3%

CC1(C)CCC(CN2CCN(c3ccc(C(=O)NS(=O)(=O)c4ccc(NCC5CCOCC5)c([N+](=O)[O-])c4)c(Oc4cnc5[nH]ccc5c4)c3)CC2)=C(c2ccc(Cl)cc2)C1 + CC(Nc1ccc2c(c1)OCCn1cc(N3C(=O)OCC3C(F)F)nc1-2)C(N)=O
IC50 [1]: 4.6 µM | IC50 [2]: 4.67 µM | IC50 [3]: 5.27 µM | IC50 [4]: 5.25 µM | IC50 [5]: 5.43 µM | IC50 [6]: 5.18 µM | viability, T/C [7]: 88.6% | viability, T/C [8]: 95.9% | viability, T/C [9]: 104% | viability, T/C [10]: 101% | viability, T/C [11]: 72.8% | viability, T/C [12]: 2.83% | viability, T/C [13]: 92.9% | viability, T/C [14]: 101% | viability, T/C [15]: 99.4% | viability, T/C [16]: 106% | viability, T/C [17]: 74.5% | viability, T/C [18]: 2.57% | viability, T/C [19]: 90.5% | viability, T/C [20]: 94.3% | viability, T/C [21]: 96.6% | viability, T/C [22]: 102% | viability, T/C [23]: 86.9% | viability, T/C [24]: 3.65% | viability, T/C [25]: 105% | viability, T/C [26]: 97.8% | viability, T/C [27]: 102% | viability, T/C [28]: 93.2% | viability, T/C [29]: 87.9% | viability, T/C [30]: 1.87% | viability, T/C [31]: 98.5% | viability, T/C [32]: 86.5% | viability, T/C [33]: 93.5% | viability, T/C [34]: 102% | viability, T/C [35]: 92.5% | viability, T/C [36]: 2.04% | viability, T/C [37]: 107% | viability, T/C [38]: 104% | viability, T/C [39]: 113% | viability, T/C [40]: 103% | viability, T/C [41]: 86.3% | viability, T/C [42]: 1.64%

C[C@@H](NC(=O)c1ncnc(N)c1Cl)c1ncc(C(=O)Nc2cc(C(F)(F)F)c(Cl)cn2)s1
viability, T/C (compound 0.0316 µM): 103% [middle of 4 runs] | viability, T/C (compound 0.1 µM): 92.3% [middle of 4 runs] | viability, T/C (compound 0.316 µM): 112% [middle of 4 runs] | viability, T/C (compound 1 µM): 106% [middle of 4 runs] | viability, T/C (compound 3.16 µM): 109% [middle of 4 runs] | viability, T/C (compound 10 µM): 86.8% [middle of 4 runs] | IC50 (curve of compound): > 10 µM

CC1(C)CCC(CN2CCN(c3ccc(C(=O)NS(=O)(=O)c4ccc(NCC5CCOCC5)c([N+](=O)[O-])c4)c(Oc4cnc5[nH]ccc5c4)c3)CC2)=C(c2ccc(Cl)cc2)C1
viability, T/C (compound 0.1 µM): 99.5% [middle of 4 runs] | viability, T/C (compound 0.316 µM): 96.5% [middle of 4 runs] | viability, T/C (compound 1 µM): 96.4% [middle of 4 runs] | viability, T/C (compound 3.16 µM): 77.8% [middle of 4 runs]

CC1(C)CCC(CN2CCN(c3ccc(C(=O)NS(=O)(=O)c4ccc(NCC5CCOCC5)c([N+](=O)[O-])c4)c(Oc4cnc5[nH]ccc5c4)c3)CC2)=C(c2ccc(Cl)cc2)C1 + CC(Nc1ncnc2nc[nH]c12)c1cc2cccc(Cl)c2c(=O)n1-c1ccccc1
IC50 [3]: 4.56 µM | IC50 [4]: 4.67 µM | IC50 [5]: 4.79 µM | IC50 [6]: 4.99 µM | IC50 [43]: 5.14 µM | IC50 [44]: 5.53 µM | viability, T/C [19]: 98.3% | viability, T/C [20]: 105% | viability, T/C [21]: 110% | viability, T/C [22]: 104% | viability, T/C [23]: 71.3% | viability, T/C [24]: 4.22% | viability, T/C [25]: 109% | viability, T/C [26]: 103% | viability, T/C [27]: 101% | viability, T/C [28]: 96.7% | viability, T/C [29]: 74.2% | viability, T/C [30]: 3.61% | viability, T/C [31]: 107% | viability, T/C [32]: 103% | viability, T/C [33]: 107% | viability, T/C [34]: 103% | viability, T/C [35]: 76.6% | viability, T/C [36]: 2.7% | viability, T/C [37]: 101% | viability, T/C [38]: 107% | viability, T/C [39]: 108% | viability, T/C [40]: 110% | viability, T/C [41]: 80.8% | viability, T/C [42]: 2.87% | viability, T/C [45]: 108% | viability, T/C [46]: 111% | viability, T/C [47]: 99.2% | viability, T/C [48]: 123% | viability, T/C [49]: 85% | viability, T/C [50]: 2.42% | viability, T/C [51]: 118% | viability, T/C [52]: 105% | viability, T/C [53]: 105% | viability, T/C [54]: 105% | viability, T/C [55]: 94.9% | viability, T/C [56]: 2.49%

CC1(C)CCC(CN2CCN(c3ccc(C(=O)NS(=O)(=O)c4ccc(NCC5CCOCC5)c([N+](=O)[O-])c4)c(Oc4cnc5[nH]ccc5c4)c3)CC2)=C(c2ccc(Cl)cc2)C1 + Cc1nc(NC(=O)N2CCCC2C(N)=O)sc1-c1ccnc(C(C)(C)C(F)(F)F)c1
IC50 [3]: 5.22 µM | IC50 [4]: 5 µM | IC50 [5]: 4.98 µM | IC50 [6]: 5.11 µM | IC50 [43]: 5.37 µM | IC50 [44]: 4.47 µM | viability, T/C [19]: 95.6% | viability, T/C [20]: 98.9% | viability, T/C [21]: 108% | viability, T/C [22]: 102% | viability, T/C [23]: 86.4% | viability, T/C [24]: 2.58% | viability, T/C [25]: 97.4% | viability, T/C [26]: 92.3% | viability, T/C [27]: 95.8% | viability, T/C [28]: 104% | viability, T/C [29]: 81.5% | viability, T/C [30]: 1.97% | viability, T/C [31]: 98.5% | viability, T/C [32]: 97.1% | viability, T/C [33]: 90.5% | viability, T/C [34]: 97.7% | viability, T/C [35]: 81% | viability, T/C [36]: 2.29% | viability, T/C [37]: 103% | viability, T/C [38]: 92.3% | viability, T/C [39]: 102% | viability, T/C [40]: 93% | viability, T/C [41]: 85.3% | viability, T/C [42]: 0.61% | viability, T/C [45]: 95.6% | viability, T/C [46]: 99.4% | viability, T/C [47]: 101% | viability, T/C [48]: 97.9% | viability, T/C [49]: 91.9% | viability, T/C [50]: 0.6% | viability, T/C [51]: 92.8% | viability, T/C [52]: 99.9% | viability, T/C [53]: 94.8% | viability, T/C [54]: 87.1% | viability, T/C [55]: 72.4% | viability, T/C [56]: 0.39%
